The source of these data is patent publication US20170158697A1, “Protein Kinase Inhibitors” (Pharmascience Inc., priority 2013, published 2017).

One test deals with T1, histidine tagged recombinant human full-length Bruton Agammaglobulinemia Tyrosine Kinase (Btk) (Homo sapiens, UniProt Q06187).
T1 construct: histidine tagged recombinant human full-length Bruton Agammaglobulinemia Tyrosine Kinase (Btk); His tag
T1 sequence (Q06187 whole entry): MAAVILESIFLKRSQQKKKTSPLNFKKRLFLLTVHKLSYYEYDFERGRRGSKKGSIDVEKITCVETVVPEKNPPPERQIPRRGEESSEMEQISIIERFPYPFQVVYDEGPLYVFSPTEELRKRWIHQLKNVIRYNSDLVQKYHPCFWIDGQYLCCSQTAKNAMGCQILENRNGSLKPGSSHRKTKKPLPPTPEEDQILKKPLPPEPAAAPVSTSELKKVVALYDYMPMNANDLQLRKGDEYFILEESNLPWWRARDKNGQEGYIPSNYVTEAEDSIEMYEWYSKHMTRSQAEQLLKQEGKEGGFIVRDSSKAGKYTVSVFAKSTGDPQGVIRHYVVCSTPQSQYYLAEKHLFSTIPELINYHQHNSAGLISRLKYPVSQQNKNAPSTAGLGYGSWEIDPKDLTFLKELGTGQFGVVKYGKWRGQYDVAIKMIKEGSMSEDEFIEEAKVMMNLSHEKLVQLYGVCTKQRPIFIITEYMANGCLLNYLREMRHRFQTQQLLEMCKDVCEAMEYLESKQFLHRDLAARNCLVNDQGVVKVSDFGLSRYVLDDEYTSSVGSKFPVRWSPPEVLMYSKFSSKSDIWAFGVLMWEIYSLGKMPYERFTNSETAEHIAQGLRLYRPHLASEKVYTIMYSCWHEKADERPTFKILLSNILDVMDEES
The test can be described thus: Btk kinase inhibition assay, Method A (fluorescence polarization, KinEASE FP Fluorescein Green). It counts as biochemical. Particulars: 10 μM ATP, 250 μM substrate, 60 minutes, Ki by Cheng-Prusoff from IC50, read-out: Inhibition of Btk, EC50 (nM) (legend: Ki). Here is the method: Fluorescence polarization-based kinase assays were performed in 384 well-plate format using histidine tagged recombinant human full-length Bruton Agammaglobulinemia Tyrosine Kinase (Btk) and a modified protocol of the KinEASE™ FP Fluorescein Green Assay supplied from Millipore®. Kinase reaction were performed at room temperature for 60 minutes in presence of 250 μM substrate, 10 μM ATP and variable test article concentrations. The reaction was stopped with EDTA/kinease detection reagents. Phosphorylation of the substrate peptide was detected by fluorescence polarization measured with a Tecan 500 instrument. From the dose-response curve obtained, the IC50 was calculated using Graph Pad Prisms® using a non linear fit curve. The Km for ATP on each enzyme was experimentally determined and the Ki values calculated using the Cheng-Prusoff equation (see: Cheng Y, Prusoff W. H. (1973) Relationship between the inhibition constant (K1) and the concentration of inhibitor which causes 50% inhibition (I50) of an enzymatic reaction”. Biochem Pharmacol 22 (23): 3099-108). ki values are reported in Tables 2a and 2b: […]
A general note: In fluorescence polarisation assays a small probe gives low polarisation when free and higher when bound to something large.
By Ki is commonly meant a measure of affinity in units of concentration, obtained from inhibition or displacement. As to `Cc1ncc(COc2cc(F)cc(Oc3ccc(-c4cn(C(C)C)c5ncnc(N)c45)cc3)c2)s1` [Compound 1], the inhibitory constant (Ki) is below 100 nM.
On the same count and under the same terms, as for `CCCc1ncc(COc2cc(F)cc(Oc3ccc(-c4cn(C(C)C)c5ncnc(N)c45)cc3)c2)cn1` [Compound 12], the figure is below 100 nM; as for `Cc1ncc(COc2cc(F)cc(Oc3ccc(-c4cn(C[C@@H]5CCCN5)c5ncnc(N)c45)cc3)c2)cn1` [Compound 8], below 100 nM.
For the molecule `Cc1ncc(COc2cc(Oc3ccc(-c4cn(C(C)C)c5ncnc(N)c45)cc3)ccc2F)cn1` [Compound 15], the inhibition constant (Ki) was in the range of 100 to 1000 nM.
The same measure, in the same setting: as for `CC(C)n1cc(-c2ccc(Oc3cc(F)cc(OCc4cncnc4)c3)cc2)c2c(N)ncnc21` [Compound 17], the figure is below 100 nM; as for `Cc1ncc(COc2cc(F)cc(Oc3ccc(-c4cn(C5CCOCC5)c5ncnc(N)c45)cc3)c2)cn1` [Compound 6], below 100 nM; as for `CC(C)n1cc(-c2ccc(Oc3cc(F)cc(OCc4cnc(C5CC5)nc4)c3)cc2)c2c(N)ncnc21` [Compound 14], below 100 nM.
Still for that read-out and setting: as for `CC(C)c1ncc(COc2cc(F)cc(Oc3ccc(-c4cn(C(C)C)c5ncnc(N)c45)cc3)c2)cn1` [Compound 13], the figure is below 100 nM; as for `Cc1ncc(COc2cc(F)cc(Oc3ccc(-c4cn([C@H]5C[C@@](C)(O)C5)c5ncnc(N)c45)cc3)c2)cn1` [Compound 18], below 100 nM.
On the same count and under the same terms, as for `Cc1ncc(COc2cc(F)cc(Oc3ccc(-c4cn(C[C@H]5CCCN5)c5ncnc(N)c45)cc3)c2)cn1` [Compound 10], the figure is 100 to 1000 nM.
On to `Cc1ncc(COc2cc(F)cc(Oc3ccc(-c4cn(C[C@@H]5CCCN5)c5ncnc(N)c45)cc3)c2)s1` [Compound 7], for which the inhibition constant (Ki) was below 100 nM.
Same read-out and setting: the same measure for `Cc1ncc(COc2ccc(F)c(Oc3ccc(-c4cn(C(C)C)c5ncnc(N)c45)cc3)c2)cn1` [Compound 11]: below 100 nM; for `Cc1ncc(COc2cc(F)cc(Oc3ccc(-c4cn(C5CCOCC5)c5ncnc(N)c45)cc3)c2)s1` [Compound 5]: below 100 nM.
Same read-out and setting: as for `Cc1ncc(COc2cc(F)cc(Oc3ccc(-c4cn(C(C)C)c5ncnc(N)c45)cc3)c2)cn1` [Compound 3], the figure is below 100 nM; as for `Cc1ncc(COc2cc(F)cc(Oc3ccc(-c4cn([C@H]5C[C@@H](N6CCOCC6)C5)c5ncnc(N)c45)cc3)c2)cn1` [Compound 23], below 100 nM; as for `Cc1ccc(COc2cc(F)cc(Oc3ccc(-c4cn(C(C)C)c5ncnc(N)c45)cc3)c2)cn1` [Compound 2], below 100 nM.
Still for that read-out and setting: the same measure for `Cc1ccc(COc2cc(F)cc(Oc3ccc(-c4cn(C5CCOCC5)c5ncnc(N)c45)cc3)c2)cn1` [Compound 4]: below 100 nM; for `CC(C)n1cc(-c2ccc(Oc3cc(F)cc(OCc4ccccc4)c3)cc2)c2c(N)ncnc21` [Compound 9]: below 100 nM.

In another test the test system is splenocytes from CD1 mice. The test can be described thus: Splenic cell proliferation assay (anti-IgM stimulated, Cell Titer-Glo). It counts as cell-based. Particulars: Splenocyte; mouse splenocytes, 2.5 ug/ml anti-IgM F(ab')2 for 72 h; read-out: Inhibition of splenic cell proliferation, EC50. How it is done:
Splenic Cell Proliferation Assay
Proliferation of splenocytes in response to anti-IgM can be blocked by inhibition of Btk. Splenocytes were obtained from 6 week old male CD1 mice (Charles River Laboratories Inc.). Mouse spleens were manually disrupted in PBS and filtered using a 70 um cell strainer followed by ammonium chloride red blood cell lysis. Cells were washed, resuspended in Splenocyte Medium (HyClone RPMI supplemented with 10% heat-inactivated FBS, 0.5× non-essential amino acids, 10 mM HEPES, 50 uM beta mercaptoethanol) and incubated at 37° C., 5% CO2 for 2 h to remove adherent cells. Suspension cells were seeded in 96 well plates at 50,000 cells per well and incubated at 37° C., 5% CO2 for 1 h. Splenocytes were pre-treated in triplicate with 10,000 nM curves of Formula I compounds for 1 h, followed by stimulation of cell proliferation with 2.5 ug/ml anti-IgM F(ab′)2 (Jackson ImmunoResearch) for 72 h. Cell proliferation was measured by Cell Titer-Glo Luminescent Assay (Promega). EC50 values (50% proliferation in the presence of compound as compared to vehicle treated controls) were calculated from dose response compound curves using GraphPad Prism Software.
On to `Cc1ncc(COc2cc(F)cc(Oc3ccc(-c4cn(C(C)C)c5ncnc(N)c45)cc3)c2)s1` [Compound 1], for which the EC50 is below 0.1 µM.
On the same count and under the same terms, as for `CCCc1ncc(COc2cc(F)cc(Oc3ccc(-c4cn(C(C)C)c5ncnc(N)c45)cc3)c2)cn1` [Compound 12], the figure is 0.1 to 1 µM.
Take `Cc1ncc(COc2cc(F)cc(Oc3ccc(-c4cn(C[C@@H]5CCCN5)c5ncnc(N)c45)cc3)c2)cn1` [Compound 8]: the EC50 is 0.1 to 1 µM.
On the same count and under the same terms, the same measure for `CC(=O)N1CCC[C@@H](n2cc(-c3ccc(Oc4cc(F)cc(OCc5cnc(C)nc5)c4)cc3)c3c(N)ncnc32)C1` [Compound 25]: below 0.1 µM.
On the same count and under the same terms, as for `CC(=O)N1CCC[C@@H]1Cn1cc(-c2ccc(Oc3cc(F)cc(OCc4cnc(C)nc4)c3)cc2)c2c(N)ncnc21` [Compound 22], the figure is 0.1 to 1 µM; as for `Cc1ncc(COc2cc(Oc3ccc(-c4cn(C(C)C)c5ncnc(N)c45)cc3)ccc2F)cn1` [Compound 15], 0.1 to 1 µM; as for `CC(C)n1cc(-c2ccc(Oc3cc(F)cc(OCc4cncnc4)c3)cc2)c2c(N)ncnc21` [Compound 17], below 0.1 µM.
Turning to `Cc1ncc(COc2cc(F)cc(Oc3ccc(-c4cn(C5CCOCC5)c5ncnc(N)c45)cc3)c2)cn1` [Compound 6], the EC50 was below 0.1 µM.
Turning to `CC(C)n1cc(-c2ccc(Oc3cc(F)cc(OCc4cnc(C5CC5)nc4)c3)cc2)c2c(N)ncnc21` [Compound 14], the EC50 is 0.1 to 1 µM.
Regarding `CC(C)n1cc(-c2ccc(Oc3cc(F)cc(OCc4ccc(CO)nc4)c3)cc2)c2c(N)ncnc21` [Compound 21], the EC50 was below 0.1 µM.
On the same count and under the same terms, as for `CC(C)c1ncc(COc2cc(F)cc(Oc3ccc(-c4cn(C(C)C)c5ncnc(N)c45)cc3)c2)cn1` [Compound 13], the figure is 0.1 to 1 µM; as for `Cc1ncc(COc2cc(F)cc(Oc3ccc(-c4cn([C@H]5C[C@@](C)(O)C5)c5ncnc(N)c45)cc3)c2)cn1` [Compound 18], below 0.1 µM.
`Cc1ncc(COc2cc(F)cc(Oc3ccc(-c4cn(C[C@H]5CCCN5)c5ncnc(N)c45)cc3)c2)cn1` [Compound 10]: the EC50 was in the range of 0.1 to 1 µM.
Still for that read-out and setting: the same measure for `Cc1ncc(COc2cc(F)cc(Oc3ccc(-c4cn(C[C@@H]5CCCN5)c5ncnc(N)c45)cc3)c2)s1` [Compound 7]: 0.1 to 1 µM; for `CC(C)n1cc(-c2ccc(Oc3cc(F)cc(OCc4cnc(CO)nc4)c3)cc2)c2c(N)ncnc21` [Compound 20]: 0.1 to 1 µM; for `Cc1ncc(COc2cc(F)cc(Oc3ccc(-c4cn([C@H]5C[C@@H](O)C5)c5ncnc(N)c45)cc3)c2)cn1` [Compound 26]: below 0.1 µM.
Turning to `Cc1ncc(COc2ccc(F)c(Oc3ccc(-c4cn(C(C)C)c5ncnc(N)c45)cc3)c2)cn1` [Compound 11], the EC50 was in the range of 0.1 to 1 µM.
`Cc1ncc(COc2cc(F)cc(Oc3ccc(-c4cn(C5CCOCC5)c5ncnc(N)c45)cc3)c2)s1` [Compound 5]: the EC50 was below 0.1 µM.
Regarding `Cc1ncc(COc2cccc(Oc3ccc(-c4cn(C(C)C)c5ncnc(N)c45)cc3)c2F)cn1` [Compound 19], the EC50 is below 0.1 µM.
Same read-out and setting: the same measure for `Cc1ncc(COc2cc(F)cc(Oc3ccc(-c4cn(C(C)C)c5ncnc(N)c45)cc3)c2)cn1` [Compound 3]: below 0.1 µM.
The same measure, in the same setting: the same measure for `Cc1ncc(COc2cc(F)cc(Oc3ccc(-c4cn([C@H]5C[C@@H](N6CCOCC6)C5)c5ncnc(N)c45)cc3)c2)cn1` [Compound 23]: below 0.1 µM; for `Cc1ccc(COc2cc(F)cc(Oc3ccc(-c4cn(C(C)C)c5ncnc(N)c45)cc3)c2)cn1` [Compound 2]: below 0.1 µM.
Same read-out and setting: the same measure for `Cc1ccc(COc2cc(F)cc(Oc3ccc(-c4cn(C5CCOCC5)c5ncnc(N)c45)cc3)c2)cn1` [Compound 4]: below 0.1 µM.
`Cc1ncc(COc2cc(F)cc(Oc3ccc(-c4cn(C(C)(C)CO)c5ncnc(N)c45)cc3)c2)cn1` [Compound 24]: the EC50 is below 0.1 µM.
As for `CC(C)n1cc(-c2ccc(Oc3cc(F)cc(OCc4ccccc4)c3)cc2)c2c(N)ncnc21` [Compound 9], the EC50 lay within 0.1 to 1 µM.

The target of the next test is T2, human BTK kinase (hBTK) (Homo sapiens, UniProt Q06187).
T2 construct: purchased Eurofins Pharma Discovery Services UK Limited (assay service)
T2 sequence (Q06187 whole entry): as above
The test can be described thus: Btk kinase inhibition assay, Method B (KinaseProfiler radiometric protein kinase assay, Eurofins). The settings on record: 40 minutes, 250 μM substrate. It counts as biochemical. How it is done: In vitro potency of selected compound was defined against human BTK kinase (hBTK) using KinaseProfiler radiometric protein kinase assays performed at Eurofins Pharma Discovery Services UK Limited.
hBTK kinase is diluted in buffer and all compounds were prepared to 50× final assay concentration in 100% DMSO. This working stock of the compound was added to the assay well as the first component in the reaction, followed by the remaining components as detailed in the assay protocol listed above. The reaction was initiated by the addition of the MgATP mix. The kinase reaction was performed at room temperature for 40 minutes in presence of 250 μM substrate, 10 mM MgAcetate, [γ-33P-ATP] (specific activity approx. 500 cpm/pmol, concentration as required) and variable test article concentrations. The ATP concentrations in the assays were with 15 μM of the apparent. The reaction was stopped by the addition of 3% phosphoric acid solution. 10 μL of the reaction is then spotted onto a P30 filtermat and washed three times for 5 minutes in 75 mM phosphoric acid and once in methanol prior to drying and scintillation counting. In addition positive control wells contain all components of the reaction, except the compound of interest; however, DMSO (at a final concentration of 2%) were included in these wells to control for solvent effects as well as blank wells contain all components of the reaction, with a reference inhibitor replacing the compound of interest. This abolishes kinase activity and establishes the base-line (0% kinase activity remaining). The potency of each compound was reported by estimating the EC50.
Molecule `CC(=O)N1CCC[C@@H](n2cc(-c3ccc(Oc4cc(F)cc(OCc5cnc(C)nc5)c4)cc3)c3c(N)ncnc32)C1` [Compound 25] had an EC50 below 0.1 µM.
The same measure, in the same setting: as for `CC(=O)N1CCC[C@@H]1Cn1cc(-c2ccc(Oc3cc(F)cc(OCc4cnc(C)nc4)c3)cc2)c2c(N)ncnc21` [Compound 22], the figure is below 0.1 µM; as for `CC(C)n1cc(-c2ccc(Oc3cc(F)cc(OCc4ccc(CO)nc4)c3)cc2)c2c(N)ncnc21` [Compound 21], below 0.1 µM; as for `CC(C)n1cc(-c2ccc(Oc3cc(F)cc(OCc4cnc(CO)nc4)c3)cc2)c2c(N)ncnc21` [Compound 20], below 0.1 µM.
The same measure, in the same setting: as for `Cc1ncc(COc2cc(F)cc(Oc3ccc(-c4cn([C@H]5C[C@@H](O)C5)c5ncnc(N)c45)cc3)c2)cn1` [Compound 26], the figure is below 0.1 µM; as for `Cc1ncc(COc2cccc(Oc3ccc(-c4cn(C(C)C)c5ncnc(N)c45)cc3)c2F)cn1` [Compound 19], below 0.1 µM.
Still for that read-out and setting: the same measure for `Cc1ncc(COc2cc(F)cc(Oc3ccc(-c4cn(C(C)(C)CO)c5ncnc(N)c45)cc3)c2)cn1` [Compound 24]: 0.1 to 1 µM.
